{"source": "ChEMBL document CHEMBL1157539", "about": "“Thousands of chemical starting points for antimalarial lead identification” (Nature, 2010)", "data": [{"test_system": "Plasmodium falciparum", "test": "GSK_TCMDC: Inhibition of Plasmodium falciparum 3D7 in whole erythrocytes, using parasite LDH activity as an index of growth.", "format": "functional, organism-based", "conditions": "Plasmodium falciparum, 3D7", "units": {"XC50": "nM"}, "values": [{"smiles": "O=C(Nc1cccc(-c2cccc(-c3nc4cc(C(F)(F)F)ccc4[nH]3)c2)c1)c1ccc(=O)[nH]n1", "XC50": 656}, {"smiles": "CCOc1cc(C(=O)Nc2ccc3nc(N(CC)CC)cc(C)c3c2)cc(OCC)c1OCC", "XC50": 696}, {"smiles": "CC1CCN(c2nc(C(=O)NCCc3ccc(Cl)c(Cl)c3)c(C(C)C)s2)CC1", "XC50": 1930}, {"smiles": "CN1CCN(c2ccnc3ccc(NC(=O)Nc4cccc5ccccc45)cc23)CC1", "XC50": 488}, {"smiles": "COCn1ncc2cc(-c3cccc(NC(=O)c4csc(NC(C)=O)n4)c3)ccc21", "XC50": 987}, {"smiles": "CC(C)(Oc1c(C2CCN(CCCCNC(=O)c3ccc(-c4ccc(C#N)cc4)cc3)CC2)ccc2c1CCCC2)C(N)=O", "XC50": 696}, {"smiles": "Cc1ccc(Nc2nccc(NCC(O)c3ccc(C(F)(F)F)cc3)n2)cc1", "note": "(stereo not drawn)", "XC50": 491}, {"smiles": "Nc1nc(N)c2c(ccc3ccccc32)n1", "XC50": 749}, {"smiles": "CCOC(=O)c1ccc(NC(=O)NC2CCN(CCCCCNC(=O)/C=C/c3ccc(Cl)c(Cl)c3)C2)cc1", "note": "(stereo not drawn)", "XC50": 487}, {"smiles": "Clc1ccccc1OCc1ccccn1", "XC50": 994}, {"smiles": "CN1CCN(S(=O)(=O)c2cccc(Nc3nccc(N(C)c4ccc5c(c4)nc(NC(=O)c4cccs4)n5C)n3)c2)CC1", "XC50": 746}, {"smiles": "COc1ccccc1C1CCN(CCN2CCC(NC(=O)c3ccc(-c4ccc(C#N)cc4)cc3)CC2)CC1", "XC50": 792}, {"smiles": "Cc1cccc2nc(-c3cccc(-c4ccc(NC(=O)Nc5ccc6c(c5)OCO6)cc4)c3)[nH]c12", "XC50": 145}, {"smiles": "COc1ccc(CNc2cc(C)nc3sc4c(c23)CCC2(C4)OCCO2)cc1", "XC50": 953}, {"smiles": "COCCN1CCN(Cc2ccc(-c3cccc(-c4nc5ccccc5[nH]4)c3)cc2)CC1", "XC50": 1110}, {"smiles": "Fc1ccc2nc(Nc3nc(-c4ccccn4)cs3)sc2c1", "XC50": 560}, {"smiles": "Cc1cc(NC(=O)NC(=N)N)ccc1Cl", "XC50": 698}, {"smiles": "O=C(C1CCN(c2nnnn2-c2ccccc2)CC1)N1CCc2ccccc2C1", "XC50": 712}, {"smiles": "CC(C)(C)c1ccc(N2C(N)=NC(N)=NC2(C)C)cc1Cl", "XC50": 6.56}, {"smiles": "O=C(NC1CCC(N2CCC(O)(c3ccc(F)cc3)CC2)CC1)c1cc2ccccc2[nH]1", "note": "(stereo not drawn)", "XC50": 736}, {"smiles": "COc1cc(C)cc(CN2CCC(Cc3ccccc3)CC2)c1O", "XC50": 1020}, {"smiles": "CCN(CC)CCN(Cc1ccc(-c2ccc(C(F)(F)F)cc2)cc1)C(=O)Cn1c(SCc2ccc(F)cc2)nc(=O)c2ccccc21", "XC50": 773}, {"smiles": "COc1ccc(Nc2nc(NCc3ccc(-n4ccnc4)cc3)cc(-c3ccc(OC)cc3)n2)cc1", "XC50": 827}, {"smiles": "COc1ccc(CN2CCCN(Cc3ccc(C(=O)Nc4ccc(Cl)cc4)cc3)CC2)cc1", "XC50": 919}, {"smiles": "COc1csc2cc(Br)ccc12", "XC50": 861}, {"smiles": "COc1cccc(NC(=O)c2ccc(NCCCN3CCC(C)CC3)c([N+](=O)[O-])c2)c1", "XC50": 770}, {"smiles": "Oc1ccc(C2CNCCc3c2cc(O)c(OCc2ccccc2)c3Cl)cc1", "note": "(stereo not drawn)", "XC50": 716}, {"smiles": "CCN(CCNS(C)(=O)=O)c1ccc(N)c(C)c1", "XC50": 875}, {"smiles": "COc1cc2nc(N3CCC(CNC(=O)c4ccc(-c5cccc(C#N)c5)cc4)CC3)nc(N)c2cc1OC", "XC50": 139}, {"smiles": "CCCn1c(Sc2ccc(C#N)c([N+](=O)[O-])c2)nnc1-c1cc(OC)cc(OC)c1", "XC50": 718}, {"smiles": "Cc1cc2nc(-c3ccc(C(=O)NCc4cccc(F)c4)cc3)[nH]c2cc1C", "XC50": 962}, {"smiles": "CSc1ccc2nccc(Nc3ccc(Oc4ccccc4)cc3)c2c1", "XC50": 871}, {"smiles": "CC(C)c1nc2c(N)nc(N)nc2nc1N", "XC50": 1310}, {"smiles": "Cc1cccc2nc(-c3cccc(-c4ccc(NC(=O)CN5CCOCC5)cc4)c3)[nH]c12", "XC50": 1050}, {"smiles": "Cc1nc(C)c(CC(=O)Nc2cccc(-c3cccc(-c4nc5cc(C(F)(F)F)ccc5[nH]4)c3)c2)s1", "XC50": 827}, {"smiles": "CN1CCC(N(Cc2ccc(-c3ccc(Cl)cc3)cc2)C(=O)Cn2c(CCc3cccc(F)c3F)cc(=O)c3ccccc32)CC1", "XC50": 865}, {"smiles": "O=C(NCC1CCN(Cc2cccc(C(F)(F)F)c2)C1)c1cc(-c2cccc(C(F)(F)F)c2)cs1", "note": "(stereo not drawn)", "XC50": 608}, {"smiles": "Cc1cc(F)ccc1[C@H]1CNCCN1C(=O)N(C)[C@@H](C)c1cc(C(F)(F)F)cc(C(F)(F)F)c1", "XC50": 232}, {"smiles": "COc1ccc(-c2cccc(NC(=O)c3cccc(C#N)c3)c2)cc1CN1CCC(O)CC1", "XC50": 990}, {"smiles": "CC(C)c1cn2c3c(cc(C(=O)N[C@@H](Cc4ccccc4)[C@H](O)CNC4CCCCC4)cc13)N(C)S(=O)(=O)CC2", "XC50": 30}, {"smiles": "NC1CCN(CCc2ccc(NS(=O)(=O)c3ccc(-c4ccccc4)cc3)cc2)CC1", "XC50": 1020}, {"smiles": "Cc1ccccc1OCCCON1C(=N)N=C(N)NC1(C)C", "XC50": 3.2}, {"smiles": "COc1ccc2c(=NN=CC=Cc3ccccc3)cc(C)[nH]c2c1", "XC50": 842}, {"smiles": "COc1cc2nc(N3CCC(CNC(=O)c4ccc(C(C)=O)cc4)CC3)nc(N)c2cc1OC", "XC50": 1120}, {"smiles": "CC(C)CCNCc1c(O)ccc2ccccc12", "XC50": 1670}, {"smiles": "Cc1ccccc1C1CCN(C2CCC(NC(=O)c3ccc(-c4cccs4)s3)CC2)CC1", "note": "(stereo not drawn)", "XC50": 1030}, {"smiles": "COc1cc(Nc2nccc(N3CCC(NC(=O)Nc4ccc5c(c4)OCO5)C3)n2)cc(OC)c1OC", "note": "(stereo not drawn)", "XC50": 761}, {"smiles": "COc1cccc2cc(C(=O)N[C@@H](CC(C)C)C(=O)N[C@H](/C=N/N(C)C(=O)OC(C)(C)C)CC(=O)OC(C)(C)C)oc12", "XC50": 654}, {"smiles": "Clc1ccc2c(NCCNc3ccnc4cc(Cl)ccc34)ccnc2c1", "XC50": 396}, {"smiles": "COc1ccc2nccc([C@@H](O)CN3CCC(NS(=O)(=O)c4cc5c(cc4Cl)SCC(=O)N5)CC3)c2c1", "XC50": 982}, {"smiles": "CC(C)(C)NC(=O)c1ccc(Oc2ccc(OC(F)(F)F)cc2)c(NC(=O)C(C)(C)C)c1", "XC50": 977}, {"smiles": "CN1CCN(CCNc2c3ccccc3nc3c2ccc2ccccc23)CC1", "XC50": 606}, {"smiles": "COc1ccc(CN(C)CCCc2ccc(NC(=O)c3cc4ccccc4[nH]3)cc2)cc1OC", "XC50": 725}, {"smiles": "Cc1cccc2nc(-c3cccc(-c4cccc(NC(=O)c5cncn5C)c4)c3)[nH]c12", "XC50": 167}, {"smiles": "Cc1cc(F)ccc1Nc1nc(N(C)c2ccccc2)c2cc(OCCN(C)C)ccc2n1", "XC50": 786}, {"smiles": "CC[C@H](C)CNC(=O)c1ccnc(-c2ccc(CNCCCc3ccccc3)cc2)c1", "XC50": 1230}, {"smiles": "CC1(C)NC(N)=NC(=N)N1OCCCCCOc1ccccc1", "XC50": 3.2}, {"smiles": "COc1ccc(CC(C)NCC(O)c2cccc(C(F)(F)F)c2)cc1", "note": "(stereo not drawn)", "XC50": 1580}, {"smiles": "CCCNC(=O)c1ccnc(-c2ccc(CNC3Cc4ccccc4C3)cc2)c1", "XC50": 940}, {"smiles": "COc1ccc(NC(=O)CCNc2ccnc(NCCc3ccc(F)cc3)n2)cc1", "XC50": 990}, {"smiles": "Cc1ccc(Nc2nc(N/N=C/c3cc4c(cc3Br)OCO4)nc(Nc3ccc([N+](=O)[O-])cc3)n2)cc1C", "XC50": 750}, {"smiles": "C=CCNC(=O)CCCNC(=N)N", "XC50": 717}, {"smiles": "Cc1cnc(NCCc2ccc(F)cc2)nc1N[C@@H](CC(C)C)C(=O)Nc1ccccc1", "XC50": 970}, {"smiles": "CC1(C)N=C(N)N=C(N)N1c1ccc(Oc2ccccc2)cc1", "XC50": 341}, {"smiles": "CCC(C)NS(=O)(=O)c1ccc2nc(Nc3ccc(C)c(Cl)c3)n(C(C)C(C)C)c2c1", "note": "(stereo not drawn)", "XC50": 375}, {"smiles": "Cc1c(C)n(C2CCCC2)c2ncnc(OC3CCN(CC(=O)NC4CC4)CC3)c12", "XC50": 790}, {"smiles": "COc1cccc(-c2ccc(C(=O)NCC3CCCN(Cc4cccc(C(F)(F)F)c4)C3)s2)c1", "note": "(stereo not drawn)", "XC50": 1140}, {"smiles": "O=C(Nc1ccc(Cl)c(Cl)c1)Nc1ccccc1N1CCNCC1", "XC50": 709}, {"smiles": "NC1CCN(c2cnn(Cc3cccc(NC(=O)Nc4ccc(-c5ccccc5)cc4)c3)c(=O)c2Cl)CC1", "XC50": 1140}, {"smiles": "CC(C)CNCc1cccc(-c2ccc(CNc3ccc(C(=O)c4ccccc4)cc3)cc2)c1", "XC50": 760}, {"smiles": "c1cc(-c2ccc(CN3CCCCC3)cc2)cc(-c2nc3ccccc3[nH]2)c1", "XC50": 585}, {"smiles": "COc1cc(C)c(NC(=O)c2cccc3c(=O)c(C)c(-c4ccccc4)oc23)cc1OC", "XC50": 1630}, {"smiles": "CN1CCCC(CN2CCN(Cc3ccc(-c4ccc(-c5nc6ccccc6[nH]5)cc4)cc3)CC2)C1", "note": "(stereo not drawn)", "XC50": 141}, {"smiles": "COc1ccc2nccc([C@@H](O)CN3CCC(NCc4ccc(OC)c(NC=O)c4)CC3)c2c1", "XC50": 753}, {"smiles": "COc1ccc(-c2cc(C(F)(F)F)n3ncc(C(=O)Nc4cc(C)ccc4O)c3n2)cc1OC", "XC50": 133}, {"smiles": "O=C(Nc1cc(C(F)(F)F)cc(C(F)(F)F)c1)N1CCC(CN2CCC(c3c[nH]c4ccccc34)CC2)CC1", "XC50": 187}, {"smiles": "CC(C)(C)CC(C)(C)c1ccc(O)c(C(=O)Nc2ccc([N+](=O)[O-])cc2)c1", "XC50": 774}, {"smiles": "O=C(Nc1ccc(-c2csc3nccn23)cc1)c1ccc(Cl)cc1", "XC50": 584}, {"smiles": "O=C(c1ccc(-c2ccccn2)s1)N1CCc2cc3nccc(N4CCN5CCC[C@H]5C4)c3cc21", "XC50": 762}, {"smiles": "CCn1cc(-c2nc(-c3cc(OC)cc(OC)c3)no2)c(=O)c2ccccc21", "XC50": 338}, {"smiles": "Cc1ccc(NS(=O)(=O)c2ccc(C(C)N3CCC(N4CCCCC4)CC3)cc2)cc1C", "note": "(stereo not drawn)", "XC50": 763}, {"smiles": "COc1ccc(C[C@@H](C)NC[C@H](O)c2cccc(Cl)c2)cc1F", "XC50": 867}, {"smiles": "O=C(NCC1CCC(C(=O)NCCc2ccc(Cl)c(Cl)c2)CC1)c1ccc(O)c(-c2ccc(Cl)c(Cl)c2)c1", "note": "(stereo not drawn)", "XC50": 895}, {"smiles": "CN(C(=O)Nc1ccc(C(F)(F)F)cc1)C1CCN(CCCCCNC(=O)/C=C/c2ccc(Cl)c(Cl)c2)CC1", "XC50": 330}, {"smiles": "O=C(Nc1ccc(-c2cccc(-c3nc4ccccc4[nH]3)c2)cc1)NC1CC1c1ccccc1", "note": "(stereo not drawn)", "XC50": 630}, {"smiles": "NC1CCN(Cc2ccc(-c3ccc(-c4nc5ccccc5[nH]4)cc3)cc2)C1", "note": "(stereo not drawn)", "XC50": 147}, {"smiles": "CN1CCN(c2ccnc3cc4c(cc23)N(C(=O)Nc2ccc(-c3ccncc3)c3ccccc23)CC4)CC1", "XC50": 945}, {"smiles": "O=S(=O)(c1cc(Cl)c(Cl)cc1Cl)N1CCCCC(c2ccc(C(F)(F)F)cc2)=N1", "XC50": 205}, {"smiles": "COc1ccc(NC(=O)c2ccc(NC(=O)c3ccc(Cl)cc3)cc2)cc1N1CCN(C)CC1", "XC50": 849}, {"smiles": "CC(=O)Nc1ccc(Cl)c(Cl)c1", "XC50": 41.6}, {"smiles": "Cc1cc(N[C@@H](Cc2ccccc2)C(=O)NCc2cccc(F)c2)nc(NCCCOC(C)C)n1", "XC50": 920}, {"smiles": "C[C@@H]([C@@H](CCCCc1ccccc1)C(=O)N[C@H](C(=O)Nc1cccnc1)C(C)(C)C)N(O)C=O", "XC50": 929}, {"smiles": "COc1cc(Cc2cnc(N)nc2N)cc(OCCCCCCN2C(=O)c3ccccc3C2=O)c1OC", "XC50": 1100}, {"smiles": "O=S(=O)(c1cc2ccccc2s1)N(CCC(O)(C(F)(F)F)C(F)(F)F)Cc1cccc(O)c1", "XC50": 751}, {"smiles": "COc1ccc(-c2cc(C(=O)N[C@@H](CC3CCCCC3)C(=O)NC3CCCc4ccccc43)ccc2O)cc1", "note": "(stereo partly drawn)", "XC50": 688}, {"smiles": "N#CCCN1CCN(Cc2cccc(-c3ccc(-c4nc5cc(F)ccc5[nH]4)cc3)c2)CC1", "XC50": 599}, {"smiles": "COc1ccc(C2CC(c3cccs3)=NN2C(=O)COc2cccc3c2CCCC3O)cc1OC", "note": "(stereo not drawn)", "XC50": 1150}, {"smiles": "N#Cc1cccc(C(=O)Nc2ccc(-c3ccc(CN4CCCC4)cc3)cc2)c1", "XC50": 1150}]}]}
